Test results reported in article PMC4129175, “HPLC-Fingerprints and Antioxidant Constituents of Phyla nodiflora” (The Scientific World Journal, 2014).
Like-named read-outs stand apart in the source and are kept apart here.

How the values were obtained:
[1] = Superoxide anion radical (O2∙−) scavenging assay (xanthine/xanthine oxidase, NBT); type: biochemical; conditions: concentration that scavenges 50% radicals; mean ± SD, n = 3
Procedure: (§1) The procedures of O2 ^∙− scavenging activity and mushroom tyrosinase inhibitory effect were performed as previous report. In the O2 ^∙− scavenging assay, xanthine (0.1 mM, 15 μl) in 50 mM phosphate buffer (pH 7.4), NBT (25 μM, 16 μl), EDTA (0.1 μM, 14 μl), and 100 μl of various concentrations of test compounds were mixed in the 96-well plates. Reactions were initiated by adding 0.5 U xanthine oxidase. After 30 min, the absorbance of each mixture was measured at 540 nm. In the mushroom tyrosinase inhibitory assay, L-tyrosine (2 mM, 80 μl) in 50 mM phosphate buffer (pH 6.5) and various concentrations of test compounds (100 μl) were added to 96-well plates. After 10 min incubation, 20 U mushroom tyrosinase was added to start the reaction. The absorbance of each mixture was measured at 490 nm after 30 min incubation. The O2 ^∙− scavenging capacity and the percentage inhibition of mushroom tyrosinase were calculated using the same formula as for the DPPH radical scavenging assay.

[2] = ABTS cation radical (ABTS∙+) decolorization/scavenging assay; conditions: concentration that scavenges 50% radicals; mean ± SD, n = 3
Procedure: The ABTS decolorization assay was performed as described, with slight modification. The ABTS cation radical (ABTS^∙+) was produced by reacting 7 mM stock solution of ABTS with 2.45 mM potassium persulfate (final concentration) and allowing the mixture to stand in the dark for 6–8 h at room temperature before use. The ABTS^∙+ solution was diluted to an absorbance of 0.7 ± 0.02 at 734 nm. Thirty microliters of samples of different concentrations were mixed with 170 μl of ABTS^∙+ working solution under a dark condition and shaken for 15 s. The absorbance was measured at 734 nm after 20 min. The scavenging capacity was calculated using the same formula as for the DPPH radical scavenging assay.

[3] = DPPH radical (DPPH∙) scavenging assay; conditions: concentration that scavenges 50% radicals; mean ± SD, n = 3
Procedure: In the DPPH radical (DPPH^∙) scavenging assay, fifty microliters of samples of various concentrations were mixed with 150 μl of DPPH^∙ solution (0.1 mM) dissolved in methanol. Each mixture was allowed to stand for 30 min and measured at 517 nm using a multiplate spectrophotometer (μQuant, Bio-Tek, USA). The scavenging ability was calculated using the following formula: (1) Scavenging ability (%) =(1−sample absorbance/control absorbance)×100%.

[4] = set-up: method as in Lan et al. 2013 [15]; conditions: positive control; ref Lan et al. 2013 [15]; cited from earlier work
[5] = set-up: method as in Lan et al. 2013 [15]; conditions: positive control; ref Lan et al. 2013 [15]; cited from earlier work; remark: listed apart in the source
[6] = set-up: method as in Lan et al. 2013 [15]; conditions: positive control; ref Lan et al. 2013 [15]; cited from earlier work; remark: listed apart in the source
mushroom tyrosinase = mushroom tyrosinase (Agaricus bisporus, UniProt C7FF04); test: Lineweaver-Burk kinetic study of tyrosinase inhibition; type: biochemical; conditions: Lineweaver-Burk plot, various concentrations of tyrosine
mushroom tyrosinase, sequence (C7FF04 1-392): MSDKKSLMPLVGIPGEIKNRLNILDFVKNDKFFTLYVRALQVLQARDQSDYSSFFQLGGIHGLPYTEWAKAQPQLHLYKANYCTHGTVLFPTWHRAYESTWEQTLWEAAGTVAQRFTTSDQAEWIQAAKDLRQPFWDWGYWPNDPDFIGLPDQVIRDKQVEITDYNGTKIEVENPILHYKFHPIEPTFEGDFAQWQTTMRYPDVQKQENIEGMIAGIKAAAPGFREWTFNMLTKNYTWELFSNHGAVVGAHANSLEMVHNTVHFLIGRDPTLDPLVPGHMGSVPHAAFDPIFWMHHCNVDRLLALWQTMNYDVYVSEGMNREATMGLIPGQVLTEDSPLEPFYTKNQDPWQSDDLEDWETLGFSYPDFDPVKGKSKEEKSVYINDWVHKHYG
mushroom tyrosinase, sequence (G1K3P4 entry or part of it, further chain): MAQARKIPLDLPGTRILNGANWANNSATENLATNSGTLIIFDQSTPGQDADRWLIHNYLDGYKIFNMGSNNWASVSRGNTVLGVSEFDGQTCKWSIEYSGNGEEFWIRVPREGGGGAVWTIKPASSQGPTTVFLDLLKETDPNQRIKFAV
Procedure: as §1
(§2) This study used Lineweaver-Burk plots to determine the inhibitory mode of test samples [15]. The kinetic study was performed in the presence or absence of test samples with various concentrations of tyrosine or xanthine as the substrate.
Figure 2 Lineweaver-Burk plot of tyrosinase inhibition of (a) onopordin (4) and (b) eupafolin (7) with various concentrations of tyrosine. […]

xanthine oxidase (XO) = biological target: T1, xanthine oxidase (XO) (Bos taurus, UniProt P80457); test: Lineweaver-Burk kinetic study of xanthine oxidase inhibition; type: biochemical; conditions: for Ki / Vmax (xanthine oxidase): xanthine as substrate
T1 construct: purchased Sigma-Aldrich; host or cells: buttermilk
T1 sequence (P80457 whole entry): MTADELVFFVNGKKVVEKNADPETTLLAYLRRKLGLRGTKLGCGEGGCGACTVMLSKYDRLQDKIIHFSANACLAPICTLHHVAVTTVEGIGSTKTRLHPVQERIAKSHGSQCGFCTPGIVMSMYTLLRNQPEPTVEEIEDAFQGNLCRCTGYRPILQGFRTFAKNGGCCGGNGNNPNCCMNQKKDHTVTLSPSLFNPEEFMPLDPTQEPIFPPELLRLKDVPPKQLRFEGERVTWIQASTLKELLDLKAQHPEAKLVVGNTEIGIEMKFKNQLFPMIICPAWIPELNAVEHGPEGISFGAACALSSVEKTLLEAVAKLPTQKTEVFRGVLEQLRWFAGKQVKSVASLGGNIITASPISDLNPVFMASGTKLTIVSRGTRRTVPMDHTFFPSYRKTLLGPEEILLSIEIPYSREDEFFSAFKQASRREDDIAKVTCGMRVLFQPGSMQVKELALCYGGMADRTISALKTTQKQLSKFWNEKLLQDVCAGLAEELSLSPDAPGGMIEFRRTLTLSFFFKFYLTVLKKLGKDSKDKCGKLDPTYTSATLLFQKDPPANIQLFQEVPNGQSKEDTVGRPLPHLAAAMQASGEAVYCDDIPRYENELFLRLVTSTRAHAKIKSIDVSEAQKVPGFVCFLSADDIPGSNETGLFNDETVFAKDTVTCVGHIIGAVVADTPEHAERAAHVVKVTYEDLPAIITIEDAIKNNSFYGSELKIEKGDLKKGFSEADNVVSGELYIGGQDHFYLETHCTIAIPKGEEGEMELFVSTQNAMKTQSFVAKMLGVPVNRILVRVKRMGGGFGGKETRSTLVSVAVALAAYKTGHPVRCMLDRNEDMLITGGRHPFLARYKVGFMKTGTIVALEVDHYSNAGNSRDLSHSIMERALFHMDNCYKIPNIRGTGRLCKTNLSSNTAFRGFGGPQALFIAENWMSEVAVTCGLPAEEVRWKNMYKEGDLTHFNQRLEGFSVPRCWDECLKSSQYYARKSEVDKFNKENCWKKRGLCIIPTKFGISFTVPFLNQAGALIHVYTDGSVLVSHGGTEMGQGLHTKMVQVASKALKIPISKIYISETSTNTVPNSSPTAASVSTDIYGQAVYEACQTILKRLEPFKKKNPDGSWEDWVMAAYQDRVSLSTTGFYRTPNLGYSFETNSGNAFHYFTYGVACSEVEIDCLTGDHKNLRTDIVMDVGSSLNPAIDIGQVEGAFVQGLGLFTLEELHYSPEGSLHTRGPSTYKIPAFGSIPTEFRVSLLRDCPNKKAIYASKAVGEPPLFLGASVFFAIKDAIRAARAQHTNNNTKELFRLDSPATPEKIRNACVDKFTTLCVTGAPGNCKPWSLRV
Procedure: as §1, §2
Figure 1 Lineweaver-Burk plot of xanthine oxidase inhibition of eupafolin (7) with various concentrations of xanthine. (×) Without eupafolin, (▲) 5 μM of eupafolin, (●) 10 μM of eupafolin, and (○) 20 μM of eupafolin. Data are presented as mean ± SD of three independent experiments.

Row | Structure (SMILES) | O2∙− SC50 [1] [µM] | ABTS∙+ SC50 [2] [µM] | DPPH∙ SC50 [3] [µM] | further results
1 | COc1cc2oc(-c3ccc(O)c(O)c3)cc(=O)c2c(O)c1OC [Compound 5, cirsiliol] | 10.7 ± 1.3 | 58.4 ± 2.7 | 21.8 ± 1.2 | –
2 | O=c1cc(-c2ccc(O)cc2)oc2cc(O)cc(O)c12 [Apigenin] | – | – | – | DPPH∙ SC50 [4]: >300 µM; ABTS∙+ SC50 [5]: 159.6 ± 4.4 µM; O2∙− SC50 [6]: 81.3 ± 2.0 µM
3 | COc1c(O)cc(O)c2c(=O)cc(-c3ccc(O)c(O)c3)oc12 [Compound 4, onopordin] | 23.5 ± 0.5 | 53.7 ± 3.9 | 24.7 ± 1.2 | Inhibitory mode on tyrosinase (mushroom tyrosinase): mixed-type inhibitor
4 | O=C1O[C@H]([C@@H](O)CO)C(O)=C1O [Vit. C, L-Ascorbic acid, reference compound] | 23.5 ± 1.7 | 49.9 ± 2.1 | 64.6 ± 4.4 | –
5 | COc1c(O)cc2oc(-c3ccc(O)cc3)cc(=O)c2c1O [Compound 8, hispidulin] | – | 55.3 ± 3.8 | 57.5 ± 2.7 | –
6 | COc1cc(-c2cc(=O)c3c(O)cc(O)c(O)c3o2)ccc1O [Compound 6, 5,7,8,4′-tetrahydroxy-3′-methoxyflavone] | 34.6 ± 2.4 | >300 | >300 | –
7 | COc1c(O)cc2oc(-c3ccc(O)c(O)c3)cc(=O)c2c1O [Compound 7, eupafolin] | 8.3 ± 0.4 | 30.5 ± 1.2 | 24.1 ± 0.4 | Inhibitory mode on tyrosinase (mushroom tyrosinase): competitive inhibitor; Ki (xanthine oxidase (XO); 7 at 5 μM): 4.48 µM; Vmax (xanthine oxidase) (xanthine oxidase (XO); 7 at 5 μM): 3.6 × 10^−2 ΔO.D./min; Ki (xanthine oxidase (XO); 7 at 10 μM): 5.05 µM; Vmax (xanthine oxidase) (xanthine oxidase (XO); 7 at 10 μM): 3.2 × 10^−2 ΔO.D./min; Ki (xanthine oxidase (XO); 7 at 20 μM): 8.93 µM; Vmax (xanthine oxidase) (xanthine oxidase (XO); 7 at 20 μM): 3.1 × 10^−2 ΔO.D./min; Inhibitory mode on xanthine oxidase (xanthine oxidase (XO); Lineweaver-Burk plot, various concentrations of xanthine): mixed-type inhibitor
8 | COc1cc(-c2cc(=O)c3c(O)c(O)c(O)cc3o2)ccc1O [Compound 2, nodifloretin] | 42.3 ± 1.5 | 62.2 ± 2.5 | 198.2 ± 3.8 | –
9 | COc1c(O)cc(O)c2c(=O)cc(-c3ccc(O)cc3)oc12 [Compound 3, 4′-hydroxywogonin] | 59.9 ± 2.1 | >300 | >300 | –
